Active and inactive are the calls of the source.

As usually defined, the AC50 is the concentration giving half of the maximal activity seen. In general, IC50 refers to the point on the concentration scale where inhibition reaches its midpoint. The term EC50 denotes the concentration that produces a half-maximal response.

The target of experiment [1] is Endoplasmic reticulum aminopeptidase 1 (Homo sapiens, UniProt Q9NZ08). Put plainly: ERAP1 aminopeptidase inhibitors, dose response, biochemical, cherry-pick, set 2, plate reader (AID 743314).
A further experiment concerns the target Beta-galactosidase (Escherichia coli, UniProt Q8VNN2). Description: Dose response counterscreen for EBI2 assay utilizing the enzyme, b-galactosidase. It counts as functional. (The purpose of a counterscreen is to sort out artefacts and off-target activity.)
Experiment [2] is described as follows: ADAM10 inhibitors, peptide cleavage, dose response, biochemical, QFRET (AID 743254).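 Further: ADAM10 enzyme with the DM2 quenched FRET peptide as substrate; EDANS fluorescence gain as the protease cuts the substrate; inhibitor potency against ADAM10 proteolytic activity.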
Experiment [3] has as its target Disintegrin and metalloproteinase domain-containing protein 17 (Homo sapiens, UniProt P78536). Put plainly: ADAM17 protease inhibitors, dose response, counter-screen for ADAM10 exosite inhibitor project, biochemical, quenched FRET substrate (AID 743253).
Another experiment deals with A549. Put plainly: A549 cell toxicity, dose response, cytotoxicity control, plate reader, cherry-pick samples (AID 687028). In kind it is functional, cell-based. As to conditions: Homo sapiens.
In experiment [4] the target is Oxysterols receptor LXR-beta (Homo sapiens, UniProt P55055). In kind it is functional, cell-based.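 Further: agonist activity at LXR measured by a cell-based luminescence readout across a dose range, run as a counterscreen for daf-12 agonists; HEK293 cells with Gal4-LXR fusion and GAL4-driven luciferase reporter; potency for activation of Gal4-LXR reporter so compounds are agonists.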
A short description of experiment [5]: HepG2 cell cytotoxicity, dose response, cytotoxicity control, ATP luminescence, cherry-pick, activator set 2 (AID 1053143). It counts as functional, cell-based.
Experiment [6] concerns the target Beta-lactamase (Salmonella choleraesuis (strain SC-B67), UniProt Q5J463). Put plainly: Epi-absorbance-based counterscreen for selective VIM-2 inhibitors: dose response biochemical high throughput screening assay to identify inhibitors of TEM-1 serine-beta-lactamase.
The target in experiment [7] is T1, Beta-lactamase (Pseudomonas aeruginosa, UniProt Q79MP6). Put plainly: IMP-1 metallo-beta-lactamase inhibitors, dose response, selectivity assay for VIM-2 inhibitor project, biochemical, epi-absorbance (AID 1920).
The target of experiment [8] is T1, Beta-lactamase. Description: […] counterscreen for selective VIM-2 inhibitors: dose response biochemical high throughput screening assay to identify inhibitors of IMP-1 metallo-beta-lactamase.
In a further experiment the target is T2, Streptokinase A (Streptococcus pyogenes serotype M1, UniProt P10520).
T2 sequence (P10520 whole entry): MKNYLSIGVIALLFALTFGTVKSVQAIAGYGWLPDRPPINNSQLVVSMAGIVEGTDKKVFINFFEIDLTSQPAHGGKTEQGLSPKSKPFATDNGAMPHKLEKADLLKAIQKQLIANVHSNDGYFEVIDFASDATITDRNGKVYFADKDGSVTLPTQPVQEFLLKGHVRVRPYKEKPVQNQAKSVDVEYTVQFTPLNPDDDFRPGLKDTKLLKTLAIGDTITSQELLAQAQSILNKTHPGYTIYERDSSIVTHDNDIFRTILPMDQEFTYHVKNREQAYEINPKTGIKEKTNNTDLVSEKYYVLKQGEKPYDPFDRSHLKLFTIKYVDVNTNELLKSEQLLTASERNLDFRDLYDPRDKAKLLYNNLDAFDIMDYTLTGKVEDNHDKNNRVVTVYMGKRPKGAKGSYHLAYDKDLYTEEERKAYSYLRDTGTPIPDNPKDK
Put plainly: S. pyogenes streptokinase expression inhibitors, potency, dose response, plasminogen activation absorbance, OD405 (AID 1914).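 Further: secreted streptokinase activity via plasminogen activation per viability signal from cell pellet.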 In kind it is functional, Streptococcus pyogenes M1 GAS.

The target in experiment [9] is Voltage-gated inwardly rectifying potassium channel KCNH2 (Homo sapiens, UniProt Q12809). Put plainly: hERG protection from proarrhythmic block, potency, dose response, cell-based, thallium flux (AID 2121). In kind it is ADME. On the technique in general: The hERG channel carries a current that helps repolarise heart muscle cells.
The target in experiment [10] is Fructose-bisphosphate aldolase (Mycobacterium tuberculosis, UniProt P9WQA3). Put plainly: Fluorescence-based biochemical high throughput dose response assay for inhibitors of the fructose-bisphosphate aldolase (FBA) of M. tuberculosis. It counts as functional.
The test system of the next experiment is Streptococcus. Put plainly: Group A Streptococcus viability loss, dose response, counter-screen for streptokinase expression inhibitor project, luminescence, BacTiterGlo (AID 1915).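 Further: potency for reduction of bacterial viability or growth.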 As to conditions: read-out: EC50. In kind it is functional, organism-based.
The subject of experiment [11] is Streptococcus sp. 'group A'. Description: growth inhibition of control SK(-) GAS strain, dose response, counter-screen for streptokinase expression inhibitor project, luminescence, kanamycin, BacTiterGlo, confirmation (AID 1900). It counts as functional, organism-based.

T1 sequence (Q79MP6 whole entry): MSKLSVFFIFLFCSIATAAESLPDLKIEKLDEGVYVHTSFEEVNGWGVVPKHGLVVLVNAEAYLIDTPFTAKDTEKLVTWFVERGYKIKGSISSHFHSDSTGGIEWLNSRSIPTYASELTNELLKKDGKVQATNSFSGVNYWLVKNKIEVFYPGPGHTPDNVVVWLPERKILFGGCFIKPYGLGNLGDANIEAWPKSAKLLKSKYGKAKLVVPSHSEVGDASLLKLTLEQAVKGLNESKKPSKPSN
Oxysterols receptor LXR-beta, sequence (P55055 whole entry, the tested form may be a part): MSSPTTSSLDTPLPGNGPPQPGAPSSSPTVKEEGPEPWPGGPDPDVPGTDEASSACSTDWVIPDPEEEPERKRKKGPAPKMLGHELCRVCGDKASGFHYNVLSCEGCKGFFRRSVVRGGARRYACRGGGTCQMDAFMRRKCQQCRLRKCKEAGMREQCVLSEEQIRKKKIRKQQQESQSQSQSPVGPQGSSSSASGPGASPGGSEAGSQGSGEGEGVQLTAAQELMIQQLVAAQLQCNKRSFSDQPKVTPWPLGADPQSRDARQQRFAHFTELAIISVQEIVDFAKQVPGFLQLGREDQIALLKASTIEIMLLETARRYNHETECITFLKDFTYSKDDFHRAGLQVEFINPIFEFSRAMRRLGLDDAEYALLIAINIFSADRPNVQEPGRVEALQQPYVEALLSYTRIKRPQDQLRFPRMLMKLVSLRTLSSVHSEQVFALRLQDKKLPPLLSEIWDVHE
Beta-lactamase (Salmonella choleraesuis (strain SC-B67), UniProt Q5J463), sequence (Q5J463 whole entry): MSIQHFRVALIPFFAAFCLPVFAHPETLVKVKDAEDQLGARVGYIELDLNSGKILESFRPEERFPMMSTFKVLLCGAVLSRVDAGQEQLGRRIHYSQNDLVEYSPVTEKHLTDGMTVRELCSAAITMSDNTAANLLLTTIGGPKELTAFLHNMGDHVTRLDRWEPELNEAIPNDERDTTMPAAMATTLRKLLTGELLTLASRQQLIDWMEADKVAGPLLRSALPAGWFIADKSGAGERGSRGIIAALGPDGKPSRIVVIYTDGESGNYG
Beta-galactosidase, sequence (Q8VNN2 whole entry): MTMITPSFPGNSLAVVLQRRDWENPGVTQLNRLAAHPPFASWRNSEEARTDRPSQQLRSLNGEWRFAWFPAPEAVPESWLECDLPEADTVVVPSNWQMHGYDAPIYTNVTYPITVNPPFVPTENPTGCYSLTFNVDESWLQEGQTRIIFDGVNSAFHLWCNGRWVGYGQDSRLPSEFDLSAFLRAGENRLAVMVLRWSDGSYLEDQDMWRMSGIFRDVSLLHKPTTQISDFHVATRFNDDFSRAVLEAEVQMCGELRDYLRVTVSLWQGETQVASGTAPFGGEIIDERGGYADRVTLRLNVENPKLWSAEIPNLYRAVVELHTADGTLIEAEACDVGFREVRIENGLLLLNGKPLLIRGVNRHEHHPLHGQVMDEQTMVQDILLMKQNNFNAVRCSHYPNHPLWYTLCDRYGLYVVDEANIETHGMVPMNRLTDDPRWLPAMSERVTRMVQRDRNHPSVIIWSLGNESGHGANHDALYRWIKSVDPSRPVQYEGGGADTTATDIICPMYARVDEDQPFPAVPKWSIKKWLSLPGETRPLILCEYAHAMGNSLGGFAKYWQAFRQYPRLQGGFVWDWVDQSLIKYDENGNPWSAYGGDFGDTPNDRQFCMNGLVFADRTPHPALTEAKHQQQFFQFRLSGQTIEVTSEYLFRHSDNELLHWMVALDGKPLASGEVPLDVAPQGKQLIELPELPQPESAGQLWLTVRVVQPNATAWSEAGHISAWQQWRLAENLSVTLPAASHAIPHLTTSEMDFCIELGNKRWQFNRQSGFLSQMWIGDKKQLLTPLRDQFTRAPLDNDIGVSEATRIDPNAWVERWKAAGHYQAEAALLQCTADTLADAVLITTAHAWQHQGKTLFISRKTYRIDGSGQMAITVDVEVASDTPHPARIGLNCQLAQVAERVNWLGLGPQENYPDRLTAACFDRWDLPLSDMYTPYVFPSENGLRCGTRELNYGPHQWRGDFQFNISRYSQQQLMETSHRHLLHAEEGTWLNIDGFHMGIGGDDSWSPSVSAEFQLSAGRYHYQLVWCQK
Voltage-gated inwardly rectifying potassium channel KCNH2, sequence (Q12809 whole entry): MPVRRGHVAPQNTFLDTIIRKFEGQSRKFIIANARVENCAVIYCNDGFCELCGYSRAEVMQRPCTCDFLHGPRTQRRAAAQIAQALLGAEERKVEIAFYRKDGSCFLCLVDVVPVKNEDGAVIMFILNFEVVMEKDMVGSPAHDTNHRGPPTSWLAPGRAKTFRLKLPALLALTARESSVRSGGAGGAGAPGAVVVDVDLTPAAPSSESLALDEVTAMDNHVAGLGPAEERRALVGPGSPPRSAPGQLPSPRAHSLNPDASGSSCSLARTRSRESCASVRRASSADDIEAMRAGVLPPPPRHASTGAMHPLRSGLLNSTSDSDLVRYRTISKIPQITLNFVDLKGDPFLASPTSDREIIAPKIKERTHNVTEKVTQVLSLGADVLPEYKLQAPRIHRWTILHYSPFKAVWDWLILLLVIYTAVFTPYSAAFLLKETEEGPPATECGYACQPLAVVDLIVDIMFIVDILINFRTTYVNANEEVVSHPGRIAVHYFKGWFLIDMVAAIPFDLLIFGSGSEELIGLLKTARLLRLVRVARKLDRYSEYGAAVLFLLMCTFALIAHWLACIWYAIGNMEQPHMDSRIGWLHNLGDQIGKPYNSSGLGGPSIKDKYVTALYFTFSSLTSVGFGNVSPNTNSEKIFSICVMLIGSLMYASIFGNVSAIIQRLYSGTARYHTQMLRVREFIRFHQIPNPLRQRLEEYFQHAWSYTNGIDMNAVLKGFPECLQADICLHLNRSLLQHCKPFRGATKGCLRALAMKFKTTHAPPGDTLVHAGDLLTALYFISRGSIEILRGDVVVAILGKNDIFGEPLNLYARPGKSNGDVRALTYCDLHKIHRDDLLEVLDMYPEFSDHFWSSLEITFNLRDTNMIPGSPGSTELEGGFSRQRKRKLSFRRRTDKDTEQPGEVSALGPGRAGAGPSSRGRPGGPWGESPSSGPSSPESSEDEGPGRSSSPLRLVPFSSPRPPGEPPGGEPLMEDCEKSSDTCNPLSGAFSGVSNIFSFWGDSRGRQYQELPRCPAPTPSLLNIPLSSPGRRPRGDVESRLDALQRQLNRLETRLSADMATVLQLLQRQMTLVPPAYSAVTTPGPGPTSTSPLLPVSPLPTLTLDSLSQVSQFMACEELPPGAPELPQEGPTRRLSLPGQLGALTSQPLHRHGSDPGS
Endoplasmic reticulum aminopeptidase 1, sequence (Q9NZ08 whole entry): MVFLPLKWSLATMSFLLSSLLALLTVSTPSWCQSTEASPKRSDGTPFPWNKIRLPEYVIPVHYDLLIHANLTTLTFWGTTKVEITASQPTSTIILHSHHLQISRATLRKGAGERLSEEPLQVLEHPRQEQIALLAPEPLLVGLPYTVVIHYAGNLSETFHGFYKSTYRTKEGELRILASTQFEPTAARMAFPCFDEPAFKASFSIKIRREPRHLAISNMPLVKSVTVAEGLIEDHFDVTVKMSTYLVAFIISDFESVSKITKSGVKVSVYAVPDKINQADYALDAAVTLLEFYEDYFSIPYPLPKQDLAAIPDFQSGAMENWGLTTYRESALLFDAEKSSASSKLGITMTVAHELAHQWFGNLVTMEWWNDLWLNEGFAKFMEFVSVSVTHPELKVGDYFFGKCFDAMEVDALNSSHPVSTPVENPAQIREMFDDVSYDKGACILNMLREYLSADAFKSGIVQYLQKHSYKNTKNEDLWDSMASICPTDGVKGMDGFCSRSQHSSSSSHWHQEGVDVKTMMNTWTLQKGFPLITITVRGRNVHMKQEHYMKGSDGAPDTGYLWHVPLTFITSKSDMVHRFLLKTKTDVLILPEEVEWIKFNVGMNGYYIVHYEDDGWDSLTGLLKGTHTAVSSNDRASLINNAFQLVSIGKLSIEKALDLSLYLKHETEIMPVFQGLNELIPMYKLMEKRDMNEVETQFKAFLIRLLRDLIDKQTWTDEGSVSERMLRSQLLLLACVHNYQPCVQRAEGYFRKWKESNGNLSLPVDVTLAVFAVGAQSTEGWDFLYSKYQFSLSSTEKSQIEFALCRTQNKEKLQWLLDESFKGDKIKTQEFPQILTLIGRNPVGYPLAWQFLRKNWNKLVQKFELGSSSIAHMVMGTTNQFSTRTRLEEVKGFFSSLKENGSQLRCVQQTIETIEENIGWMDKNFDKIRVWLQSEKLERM
Disintegrin and metalloproteinase domain-containing protein 17, sequence (P78536 whole entry, the tested form may be a part): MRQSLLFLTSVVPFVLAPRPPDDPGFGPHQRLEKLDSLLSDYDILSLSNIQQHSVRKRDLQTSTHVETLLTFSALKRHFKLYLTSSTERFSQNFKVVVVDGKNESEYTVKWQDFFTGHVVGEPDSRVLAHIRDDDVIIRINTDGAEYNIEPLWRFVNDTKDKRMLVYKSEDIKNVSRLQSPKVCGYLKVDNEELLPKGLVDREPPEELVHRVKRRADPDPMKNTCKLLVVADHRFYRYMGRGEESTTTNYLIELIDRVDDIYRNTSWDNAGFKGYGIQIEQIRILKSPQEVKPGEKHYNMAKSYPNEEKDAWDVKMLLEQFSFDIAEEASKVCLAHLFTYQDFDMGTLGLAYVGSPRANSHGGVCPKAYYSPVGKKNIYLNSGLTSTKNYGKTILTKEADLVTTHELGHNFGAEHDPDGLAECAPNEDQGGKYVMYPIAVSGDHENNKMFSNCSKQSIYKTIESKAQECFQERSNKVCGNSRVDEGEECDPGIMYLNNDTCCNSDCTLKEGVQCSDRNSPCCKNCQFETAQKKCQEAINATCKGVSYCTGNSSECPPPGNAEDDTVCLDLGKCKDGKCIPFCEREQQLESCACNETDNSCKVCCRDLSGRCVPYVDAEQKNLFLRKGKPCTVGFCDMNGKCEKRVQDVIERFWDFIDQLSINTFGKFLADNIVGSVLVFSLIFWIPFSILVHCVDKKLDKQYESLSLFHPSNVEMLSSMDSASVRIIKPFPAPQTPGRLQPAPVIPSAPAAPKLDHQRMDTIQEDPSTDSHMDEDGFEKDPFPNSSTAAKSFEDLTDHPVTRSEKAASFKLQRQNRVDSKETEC

For `CN1c2ccc(-c3ccc(C#N)cc3)cc2[C@@H]2[C@@H](CCN2C(=O)CC2CC2)[C@@H]1CO`, the AC50 in experiment [1] was 19.8 µM (active). As for `Cc1ccc(CNC(=O)C2CCN(S(=O)(=O)c3ccc(Br)s3)CC2)cc1`, the IC50 on Beta-galactosidase was > 80 µM (inactive). `O=S(=O)(NCC(Nc1ccc(Cl)cc1)c1ccccc1)c1ccccc1` (stereo unspecified): the figures for the IC50 in [2] and in experiment [3] were 11.4 µM (inactive) and > 69.5 µM (inactive), respectively. On to `Cc1ccc(NC(=O)c2cc(-c3cc(Cl)ccc3C)[nH]n2)cc1NS(C)(=O)=O`, for which the AC50 in the experiment with A549 was 23.8 µM (active).

As for `Cc1ccc(SCCN2CCC(C)CCC2=O)cc1` (stereo unspecified), the EC50 in experiment [4] was > 67.5 µM (inactive). With `Cc1cccn2c(=O)c(/C=C(\C#N)C(N)=O)c(Oc3ccccc3)nc12`, the AC50 in the experiment “cells” is 8.22 µM (active). With `CC(=O)Nc1cc2nn(-c3ccccc3)nc2cc1Cl`, in experiment [5], the AC50 is 4.99 µM (active).

Regarding `Cc1ccc(-c2nnc(S)n2-c2ccccc2)cc1`, the IC50 at Beta-lactamase [6], at Beta-lactamase [7] and on Beta-lactamase [8] was > 59.6 µM (inactive) throughout.

`Sc1nc(-c2ccccc2)cn1/N=C/c1cccc2ccccc12`: the concentration giving a half-maximal response (EC50) at Streptokinase A was > 150 µM (not active); in [9], 0.7 µM (active); in the experiment on Streptococcus, > 150 µM (not active); in experiment [11], 89.1 µM (active). In experiment [10], the IC50 was > 9.99 µM (inactive).

The record behind these values is ChEMBL document CHEMBL1201862, “PubChem BioAssay data set” (2004).
